Experimental findings from US8835462B2, “Macrocyclic picolinamides as fungicides” (Dow AgroSciences LLC, priority 2012, dated 2014) are described below.

In data set [1] the test system is Phakopsora pachyrhizi. Description: Asian soybean rust (PHAKPA) fungicidal activity. The format is in vivo. As to conditions: 25 ppm; for Disease Control PHAKPA 1 DP: 1 Day Protectant; for Disease Control PHAKPA 2 DC: 2 Day Curative. The method, then:
Evaluation of Fungicidal Activity: Asian Soybean Rust (Phakopsora Pachyrhizi; Bayer Code […]) Technical grades of materials were dissolved in acetone, which were then mixed with nine volumes of water containing 0.011% Tween 20. The fungicide solutions were applied onto soybean seedlings using an automated booth sprayer to run-off. All sprayed plants were allowed to air dry prior to further handling. Soybean plants (variety Williams 82) were grown in soil-less Metro mix, with one plant per pot. Two weeks old seedlings were used for testing. Plants were inoculated either 2 days prior to or 1 day after fungicide treatments. Plants were incubated for 24 h in a dark dew room at 22° C. and 100% RH then transferred to a growth room at 23° C. for disease to develop. Disease severity was assessed on the sprayed leaves.

Data set [2] deals with Cochliobolus sativus. Briefly: Spot blotch of barley (COCHSA) fungicidal activity. The format is in vivo. As to conditions: 100 ppm, 1 Day Protectant. As for the experimental part: Technical grades of materials were dissolved in acetone, which were then mixed with nine volumes of water containing 110 ppm Triton X-100. The fungicide solutions were applied onto wheat seedlings using an automated booth sprayer to run-off. All sprayed plants were allowed to air dry prior to further handling. Wheat plants (variety Yuma) were grown from seed in a greenhouse in 50% mineral soil/50% soil-less Metro mix until the first leaf was fully emerged, with 7-10 seedlings per pot. These plants were inoculated with an aqueous spore suspension of Septoria tritici either prior to or after fungicide treatments. After inoculation the plants were kept in 100% relative humidity (one day in a dark dew chamber followed by two to three days in a lighted dew chamber at 20° C.) to permit spores to germinate and infect the leaf. The plants were then transferred to a greenhouse set at 20° C. for disease to develop. When disease symptoms were fully expressed on the 1st leaves of untreated plants, infection levels were assessed on a scale of 0 to 100 percent disease severity. Percent disease control was calculated using the ratio of disease severity on treated plants relative to untreated plants. Evaluation of Fungicidal Activity: Spot Blotch of Barley (Cochliobolus Sativus; Bayer Code COCHSA) Barley seedlings (variety Harrington) were propagated in soil-less Metro mix, with each pot having 8 to 12 plants, and used for testing when first leaf was fully emerged. Test plants were inoculated with a spore suspension of Cochliobolus sativus 24 hr after fungicide treatments. After inoculation the plants were placed in a dark dew room with 100% RH and temperature of 22° C. for 48 hr. The plants were then kept in a greenhouse set at 24° C. until disease fully developed. Fungicide formulation, application and disease assessment followed the procedures as described in the Example A.

For data set [3], the system named is Rhyncosporium secalis. Description: Barley scald (RHYNSE) fungicidal activity. The conditions noted are these: 100 ppm, 1 Day Protectant. The format is in vivo. The method, then: Technical grades of materials were dissolved in acetone, which were then mixed with nine volumes of water containing 110 ppm Triton X-100. The fungicide solutions were applied onto wheat seedlings using an automated booth sprayer to run-off. All sprayed plants were allowed to air dry prior to further handling. Wheat plants (variety Yuma) were grown from seed in a greenhouse in 50% mineral soil/50% soil-less Metro mix until the first leaf was fully emerged, with 7-10 seedlings per pot. These plants were inoculated with an aqueous spore suspension of Septoria tritici either prior to or after fungicide treatments. After inoculation the plants were kept in 100% relative humidity (one day in a dark dew chamber followed by two to three days in a lighted dew chamber at 20° C.) to permit spores to germinate and infect the leaf. The plants were then transferred to a greenhouse set at 20° C. for disease to develop. When disease symptoms were fully expressed on the 1st leaves of untreated plants, infection levels were assessed on a scale of 0 to 100 percent disease severity. Percent disease control was calculated using the ratio of disease severity on treated plants relative to untreated plants. Evaluation of Fungicidal Activity: Barley Scald (Rhyncosporium Secalis; Bayer Code […]) Barley seedlings (variety Harrington) were propagated in soil-less Metro mix, with each pot having 8 to 12 plants, and used in the test when first leaf was fully emerged. Test plants were inoculated by an aqueous spore suspension of Rhyncosporium secalis 24 hr after fungicide treatments. After inoculation the plants were kept in dew room at 20° C. with 100% relative humidity for 48 hr. The plants were then transferred to a greenhouse set at 20° C. for disease to develop. Fungicide formulation, application and disease assessment on the sprayed leaves followed the procedures as described in the Example A.

`COc1ccnc(C(=O)N[C@H]2COC[C@H](Cc3ccccc3)[C@@H](OCC(C)C)[C@H](C)OC2=O)c1O` [Compound 2, N-((3S,7S,8R,9S)-7-benzyl-8-isobutoxy-9-methyl-2-oxo-1,5-dioxonan-3-yl)-3-hydroxy-4-methoxypicolinamide]: the melting point lay within 126 to 128 °C. In data set [1], the “Disease Control PHAKPA 1 DP” value is “A (80-100)” and the “Disease Control PHAKPA 2 DC” value is “A (80-100)”.

In turn, `COc1ccnc(C(=O)N[C@H]2COC[C@H](Cc3ccccc3)[C@@H](OCC(C)C)[C@H](C)OC2=O)c1OCOC(=O)C(C)C` [Compound 3] had a melting point of 54 to 58 °C. Also, in data set [1], the “Disease Control PHAKPA 1 DP” value was “A (80-100)” and the “Disease Control PHAKPA 2 DC” value is reported as “A (80-100)”. In addition, the “Disease Control COCHSA 1DP” value in data set [2] is “A (80-100)”.

For `COc1ccnc(C(=O)N[C@H]2COC[C@H](Cc3ccccc3)[C@@H](OCC(C)C)[C@H](C)OC2=O)c1OCOC(=O)C(C)(C)C` [Compound 7], in data set [1], the “Disease Control PHAKPA 1 DP” value was “A (80-100)” and the “Disease Control PHAKPA 2 DC” value is listed as “A (80-100)”. Also, the “Disease Control COCHSA 1DP” value in data set [2] was “B (More than 0-Less than 80)”.

Consider `COc1ccnc(C(=O)N[C@H]2COC[C@H](Cc3ccccc3)[C@@H](OCC(C)C)[C@H](C)OC2=O)c1OCOC(C)=O` [Compound 8, (2-((3S,7S,8R,9S)-7-benzyl-8-isobutoxy-9-methyl-2-oxo-1,5-dioxonan-3-ylcarbamoyl)-4-methoxypyridin-3-yloxy)methyl acetate], for which, in data set [1], the “Disease Control PHAKPA 1 DP” value was “A (80-100)” and the “Disease Control PHAKPA 2 DC” value is reported as “A (80-100)”. Also, the “Disease Control RHYNSE 1DP” value in data set [3] is listed as “A (80-100)”. Besides, the “Disease Control COCHSA 1DP” value in data set [2] is reported as “B (More than 0-Less than 80)”.

`COc1ccnc(C(=O)N[C@H]2COC[C@H](Cc3ccccc3)[C@@H](OCC(C)C)[C@H](C)OC2=O)c1OC(C)=O` [Compound 9, 2-(((3S,7S,8R,9S)-7-benzyl-8-isobutoxy-9-methyl-2-oxo-1,5-dioxonan-3-yl)carbamoyl)-4-methoxypyridin-3-yl acetate]: in data set [1], the “Disease Control PHAKPA 1 DP” value is on record as “A (80-100)” and the “Disease Control PHAKPA 2 DC” value is “A (80-100)”. Besides, the “Disease Control COCHSA 1DP” value in data set [2] was “B (More than 0-Less than 80)”.

Consider `COc1ccnc(C(=O)N[C@H]2COC[C@H](Cc3ccccc3)[C@@H](OCC(C)C)[C@H](C)OC2=O)c1OC(=O)OC(C)C` [Compound 10, 2-(((3S,7S,8R,9S)-7-benzyl-8-isobutoxy-9-methyl-2-oxo-1,5-dioxonan-3-yl)carbamoyl)-4-methoxypyridin-3-yl isopropyl carbonate], for which, in data set [1], the “Disease Control PHAKPA 1 DP” value was “A (80-100)” and the “Disease Control PHAKPA 2 DC” value is reported as “A (80-100)”. For the same compound, the “Disease Control COCHSA 1DP” value in data set [2] is given as “B (More than 0-Less than 80)”.

Regarding `COc1ccnc(C(=O)N[C@H]2COC[C@H](Cc3ccccc3)[C@@H](OC3CCCC3)[C@H](C)OC2=O)c1OC(C)=O` [Compound 107], the “Disease Control RHYNSE 1DP” value in data set [3] is given as “A (80-100)”.

Turning to `COc1ccnc(C(=O)N[C@H]2COC[C@H](Cc3ccccc3)[C@@H](OC3CCCC3)[C@H](C)OC2=O)c1OCOC(=O)C(C)C` [Compound 108], in data set [1], the “Disease Control PHAKPA 1 DP” value was “A (80-100)” and the “Disease Control PHAKPA 2 DC” value is “A (80-100)”. The “Disease Control RHYNSE 1DP” value in data set [3] is recorded as “A (80-100)”.

For orientation: melting point means the temperature of the solid-liquid transition.
